From BindingDB's records for doi:10.1016/j.bioorg.2015.03.004 (Suez Canal University, 2015)

Target: Vascular endothelial growth factor receptor 2 (Homo sapiens, UniProt P35968)
Test: ADP-GloTM Assay
Experimental: The protein kinase assays used to determine IC50 value were performed using ADP-GloTM assay kit. The assay was started by incubating the reaction mixture in a 96-well plate at 30 °C for 30 min. After the 30 min incubation period, the assay was terminated by the addition of […] of ADPGloTM Reagent. The 96-well plate was shaken and then incubated for 40 min at ambient temperature, […] of kinase detection reagent was added, the 96-well reaction plate was then read using ADP-GloTM luminescences protocol on GloMaxTM plate reader. Blank control waqs set up that included all the assay components except the addition of appropriate substrate (replace with equal volume of kinase assay buffer).

Chain of Vascular endothelial growth factor receptor 2 (P35968 whole entry): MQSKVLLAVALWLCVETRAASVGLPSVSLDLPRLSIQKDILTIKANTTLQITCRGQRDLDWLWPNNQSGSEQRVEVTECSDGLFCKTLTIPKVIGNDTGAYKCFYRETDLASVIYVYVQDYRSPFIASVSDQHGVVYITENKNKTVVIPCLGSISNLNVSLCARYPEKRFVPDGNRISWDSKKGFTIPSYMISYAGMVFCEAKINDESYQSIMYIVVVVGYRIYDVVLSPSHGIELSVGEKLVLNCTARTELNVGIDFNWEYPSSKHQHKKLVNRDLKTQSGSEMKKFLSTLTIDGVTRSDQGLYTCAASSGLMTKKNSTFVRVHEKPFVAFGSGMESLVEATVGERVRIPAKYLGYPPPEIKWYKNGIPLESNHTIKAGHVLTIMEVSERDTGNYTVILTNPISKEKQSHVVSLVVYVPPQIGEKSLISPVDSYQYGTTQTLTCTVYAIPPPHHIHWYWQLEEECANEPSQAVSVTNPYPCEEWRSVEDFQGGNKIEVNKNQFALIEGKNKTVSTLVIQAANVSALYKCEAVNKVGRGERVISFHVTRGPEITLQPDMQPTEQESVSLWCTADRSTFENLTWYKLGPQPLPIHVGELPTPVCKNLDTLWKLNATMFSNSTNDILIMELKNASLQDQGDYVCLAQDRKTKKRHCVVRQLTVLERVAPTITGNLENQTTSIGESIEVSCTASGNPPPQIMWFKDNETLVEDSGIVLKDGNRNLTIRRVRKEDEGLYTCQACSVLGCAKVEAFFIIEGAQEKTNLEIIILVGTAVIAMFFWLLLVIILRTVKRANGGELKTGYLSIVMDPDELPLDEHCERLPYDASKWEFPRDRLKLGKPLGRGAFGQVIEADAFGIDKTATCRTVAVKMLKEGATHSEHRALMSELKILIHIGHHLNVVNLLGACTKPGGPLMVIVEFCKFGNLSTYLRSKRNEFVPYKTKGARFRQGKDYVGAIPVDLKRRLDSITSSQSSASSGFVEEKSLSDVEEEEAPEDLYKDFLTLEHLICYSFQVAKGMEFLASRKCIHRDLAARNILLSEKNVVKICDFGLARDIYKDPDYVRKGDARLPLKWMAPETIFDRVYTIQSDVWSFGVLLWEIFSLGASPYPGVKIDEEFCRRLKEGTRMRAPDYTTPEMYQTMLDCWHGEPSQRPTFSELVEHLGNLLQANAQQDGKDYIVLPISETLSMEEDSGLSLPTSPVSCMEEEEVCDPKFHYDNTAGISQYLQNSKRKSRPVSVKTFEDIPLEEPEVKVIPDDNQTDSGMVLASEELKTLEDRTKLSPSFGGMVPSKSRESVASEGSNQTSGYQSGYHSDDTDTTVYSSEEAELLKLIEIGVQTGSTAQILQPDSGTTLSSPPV

IC50: 2600 nM
SMILES: Cc1cc(C)c2c(Nc3ncnc4c3sc3nc(C)cc(C)c34)csc2n1 [N-(4,6-dimethylthieno[2,3-b]pyridine)-7,9-dimethylpyrido[30,20:4,5]thieno[3,2-d]pyrimidin-4-amine (9d)]
